Several values for one entry are separate records, joined by “and”; a condition that tells them apart may be missing. Equal values may be shown once.
What was measured:
human MPC1L/MPC2 complex [1] = target: T1, human MPC1L/MPC2 complex (Homo sapiens, UniProt O95563+P0DKB6); experiment: CPM thermostability shift assay, purified MPC1L/MPC2; format: binding; settings: for ΔTm at 100 µM / Tm, CPM assay / ∆Tm, CPM assay (thermal shift compared to no-ligand control): inhibitor 100 μM; for ΔTm at 100 µM: read-out: ∆Tm, CPM assay (thermal shift compared to no-ligand control); for Tm, CPM assay: unliganded 51.3 ± 0.2, mean ± s.d., 3 biological repeats
T1 construct: eight-histidine tag (C, cleaved yes); TEV protease cleavage site (part stays on MPC2 after digestion) (C, cleaved yes); made in house; host or cells: Saccharomyces cerevisiae SHY15 (mpc triple deletion strain), purified from mitochondria
T1 sequence (P0DKB6 2-136): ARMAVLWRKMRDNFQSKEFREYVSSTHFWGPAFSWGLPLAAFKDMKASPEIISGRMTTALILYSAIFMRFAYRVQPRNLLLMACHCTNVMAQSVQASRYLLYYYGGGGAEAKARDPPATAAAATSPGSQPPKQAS
T1 sequence (O95563 2-127): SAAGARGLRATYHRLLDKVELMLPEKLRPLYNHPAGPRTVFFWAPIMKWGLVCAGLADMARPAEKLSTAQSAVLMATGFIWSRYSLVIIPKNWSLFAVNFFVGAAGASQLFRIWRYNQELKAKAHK
Description: The assessment of ligand binding was performed via shifts in protein thermostability upon binding using thermal denaturation on a rotary quantitative PCR (qPCR) instrument (Qiagen Rotor-Gene Q 2plex HRM, Venlo, Netherlands), as previously described. In this method, cysteine residues, buried within the protein structure, become solvent-exposed during denaturation in a temperature ramp and then react with 7-diethylamino-3-(4-maleimidophenyl)-4-methylcoumarin (CPM) to form fluorescent-adducts. Briefly, a CPM working solution was prepared by diluting the CPM stock (5 mg/mL in dimethyl sulfoxide) 50-fold into assay buffer (20 mM Tris–HCl, pH 7.4, 150 mM NaCl, 0.1% (w/v) LMNG, 0.1 mg/mL TOCL) and incubated for 10 min at room temperature. In each analysis, performed in duplicates or triplicates, 3 μg of purified MPC was diluted into 45 μL of assay buffer containing the desired concentration of the inhibitor then incubated for 10 min on ice. Next, 5 μL of the CPM working solution were added. Samples were incubated on ice for an additional 10 min then subjected to a temperature ramp of 5.6 °C/min. The fluorescence increase was monitored with the HRM channel of the instrument (excitation at 440–480 nm, emission at 505–515 nm). Unfolding profiles were analysed with the Rotor-Gene Q software 2.3, and the peaks of their derivatives were used to determine the apparent melting temperature.

[2] = target: T2, human MPC1L/MPC2 hetero-dimer (Homo sapiens, UniProt O95563+P0DKB6); experiment: Inhibition of [14C]-pyruvate homo-exchange in MPC1L/MPC2 proteoliposomes; format: biochemical; settings: for IC50: MPC1L/MPC2 proteoliposomes, 50 μM [14C]-pyruvate homo-exchange, mean ± s.d., read-out: IC50 of pyruvate transport inhibition
T2 construct: eight-histidine tag (C, cleaved yes); TEV protease cleavage site (part stays on MPC2 after digestion) (C, cleaved yes); made in house; host or cells: Saccharomyces cerevisiae SHY15 (mpc triple deletion strain), purified from mitochondria
T2 sequence (P0DKB6 2-136): T1 sequence (P0DKB6 2-136)
T2 sequence (O95563 2-127): T1 sequence (O95563 2-127)
Description: Egg L-α-phosphatidylcholine 99% (w/v) (Avanti Polar Lipids, AL, USA) and TOCL were mixed in a 20:1 (w/w) ratio, dried under a stream of nitrogen and washed once with methanol before being dried again. Lipids were hydrated in 20 mM Tris–HCl, pH 8.0, 50 mM NaCl to a concentration of 12 mg/mL. Unlabeled pyruvate was added as a freshly made concentrated stock at a final concentration of 5 mM for internalisation. Lipids were solubilised with 1.2% (v/v) pentaethylene glycol monodecyl ether (Sigma) and freshly purified protein was added at a lipid-to-protein ratio of 250:1 (w/w). Samples were incubated on ice for 5 min, then liposomes were formed by the step-wise removal of pentaethylene glycol monodecyl ether by five additions at 20 min intervals of 60 mg Bio-Beads SM-2 (Bio-Rad, Watford, UK) with gentle mixing at 4 °C. A final addition of 480 mg Bio-Beads was incubated with the samples overnight. Proteoliposomes were first separated from the Bio-Beads by passage through empty spin columns (Bio-Rad, Watford, UK) and subsequently pelleted at 120,000×g for 60 min. The proteoliposomes were resuspended with a thin needle in 150 μL of their supernatant after the rest of the supernatant was removed.
The time course of pyruvate homo-exchange was measured at room temperature. The transport was initiated by diluting proteoliposomes 200-fold into external buffer, 20 mM MES, pH 6.4, 50 mM NaCl, containing 50 μM [^14C]-pyruvate (500,000 dpm, Perkin Elmer, MA, USA). The reaction (0–30 s) was terminated by rapid dilution into 8 volumes of ice-cold internal buffer (20 mM Tris–HCl, pH 8.0, 50 mM NaCl), followed by rapid filtration through cellulose nitrate 0.45 μm filters (Millipore, Gillingham, UK) and washing with an additional 8 volumes of buffer. The filters were dissolved in Ultima Gold scintillation liquid (Perkin Elmer, MA, USA) and the radioactivity was counted with a Perkin Elmer Tri-Carb 2800 RT liquid scintillation counter. […] The data analysis was performed with non-linear regression fittings using GraphPad Prism 7.0d ([Inhibitor] vs response, variable slope). The specific uptake rates were calculated based on the amount of protein used in reconstitutions, as estimated from bicinchoninic acid assay. The biological repeats represent independent proteoliposome preparations using protein from independent purifications.

human MPC1L/MPC2 complex [3] = target: T1, human MPC1L/MPC2 complex; experiment: nano-DSF thermostability shift assay, purified MPC1L/MPC2; format: binding; settings: inhibitor 100 μM; for Tm, nano-DSF: unliganded 51.9 ± 0.1, mean ± s.d., 2 biological repeats
Description: Ligand binding was also assessed using dye-free nano differential scanning fluorimetry (nano-DSF) to monitor fluorescence changes due to altered environments of tryptophan and tyrosine residues during unfolding. Protein samples in buffer containing 20 mM Tris–HCl pH 7.4, 150 mM NaCl, 0.1% (w/v) LMNG, 0.1 mg/mL TOCL, in the presence or absence of the indicated concentrations of small molecule inhibitors, were loaded into capillary tubes, and a temperature ramp of 5 °C/min was applied. The intrinsic fluorescence was measured using the NanoTemper Prometheus NT.48 (NanoTemper, München, Germany).

[4] = target: T3, recombinant human MPC1L/MPC2 (Homo sapiens, UniProt O95563+P0DKB6); experiment: Electrospray mass spectrometry of MPC1L/MPC2 after reaction with inhibitors or sulfhydryl modifiers; settings: for Covalent modification of MPC protomers (molecular mass change): folded MPC1L/MPC2 incubated with compound, ESI-MS; for Modifications, MPC1L (2–136) / Modifications, MPC1L (5–136) / Modifications, MPC2 (2–137): number of covalent adducts from mass increase
T3 construct: MPC1L (2–136); MPC2 (2–137); eight-histidine tag (C, cleaved yes); TEV protease cleavage site (part stays on MPC2 after digestion) (C, cleaved yes); made in house; host or cells: Saccharomyces cerevisiae SHY15 (mpc triple deletion strain), purified from mitochondria
T3 sequence (P0DKB6 2-136 limits assumed): T1 sequence (P0DKB6 2-136)
T3 sequence (O95563 2-127 limits assumed): T1 sequence (O95563 2-127)
Description: Different MPC inhibitors (Table1) or sulfhydryl reagents were first incubated with MPC1L/MPC2 in a folded state, then the protein molecular masses were measured by electrospray mass spectrometry. The MPC subunits (10 μg) were resolved by reverse-phase HPLC on a PLRP-S column (1.0 mm i.d. X 75 mm; VARIAN) using a gradient of 2-propanol in a solvent system compatible with the recovery of membrane proteins (Carroll et al., 2009). The eluate (50 μL/min) was introduced into a QTRAP4000 (SCIEX) mass spectrometer operating in positive ion single MS mode. The instrument was scanned from 700 m/z to 2300 m/z after calibration with ions from a mixture of 1.0 μM of myoglobin and 1.5 μM trypsinogen. Molecular masses were obtained by reconstruction of the spectra of multiply charged ions using PeakView (SCIEX).

mammalian MPCs = settings: cited from earlier work
[5] = MPC1L/MPC2 after reaction with compound

Row | SMILES | ΔTm at 100 µM (human MPC1L/MPC2 complex [1]) | Tm, CPM assay (human MPC1L/MPC2 complex [1]) | ∆Tm, nano-DSF (human MPC1L/MPC2 complex [3]) | Tm, nano-DSF (human MPC1L/MPC2 complex [3]) | other results
1 | C=CCN1C(=O)NC(=O)/C(=C/c2ccc(-c3ccccc3[N+](=O)[O-])o2)C1=O [Compound 13] | 7.4 ± 1.9 °C | 58.7 ± 1.7 °C | – | – | –
2 | CCN(CC)C(=O)/C(C#N)=C/c1cc(O)c(O)c([N+](=O)[O-])c1 [Entacapone, (2E)-2-cyano-3-(3,4-dihydroxy-5-nitrophenyl)-N,N-diethylprop-2-enamide] | – | – | 6.3 ± 1.1 °C | 58.2 ± 1.0 °C | IC50 [2]: 630 ± 53 nM
3 | CS(=O)(=O)SCCN [MTSEA] | – | – | – | – | Mass difference (observed vs calculated), MPC1L (2–136) [4, 5]: +149.3 Da; Mass difference (observed vs calculated), MPC1L (5–136) [4, 5]: +149.2 Da; Covalent modification of MPC protomers (molecular mass change) [4]: modified covalently; Modifications, MPC1L (2–136) [4]: 2 x MTSEA; Modifications, MPC1L (5–136) [4]: 2 x MTSEA; Modifications, MPC2 (2–137) [4]: 1 x MTSEA
4 | CCc1ccc(C(=O)COc2ccc(CC3SC(=O)NC3=O)cc2)nc1 (stereo not shown) [Mitoglitazone, mitoglitazone] | 5.4 ± 0.8 °C | 56.7 ± 0.6 °C | 1.9 ± 0.5 °C | 53.8 ± 0.4 °C | –
5 | CCN1C(=O)C=CC1=O [NEM] | – | – | – | – | Covalent modification of MPC protomers (molecular mass change) [4]: modified covalently; Modifications, MPC1L (2–136) [4]: 2 x NEM and 1 x NEM; Modifications, MPC1L (5–136) [4]: unmodified and 1 x NEM and 2 x NEM and 3 x NEM; Modifications, MPC2 (2–137) [4]: 2 x NEM and 1 x NEM and 3 x NEM
6 | O=C1CN(/N=C/c2ccc([N+](=O)[O-])o2)C(=O)N1 [Nitrofurantoin, (E)-1-[(5-nitro-2-furyl)methylideneamino]imidazolidine-2,4-dione] | – | – | – | – | IC50 [2]: 3300 ± 2600 nM
7 | CCc1ccc(CCOc2ccc(CC3SC(=O)NC3=O)cc2)nc1 (stereo not shown) [Pioglitazone, pioglitazone] | 5.1 ± 0.9 °C | 56.4 ± 0.7 °C | 1.1 ± 0.3 °C | 53.0 ± 0.2 °C | –
8 | CN(CCOc1ccc(CC2SC(=O)NC2=O)cc1)c1ccccn1 (stereo not shown) [Rosiglitazone, rosiglitazone] | 5.3 ± 0.5 °C | 56.6 ± 0.3 °C | – | – | –
9 | COc1cc(C2Oc3cc([C@H]4Oc5cc(O)cc(O)c5C(=O)[C@@H]4O)ccc3OC2CO)ccc1O (stereo partly shown) [Silibinin] | 0.1 ± 0.6 °C | 51.4 ± 0.4 °C | 0.2 ± 0.3 °C | 52.1 ± 0.2 °C | ∆Tm, nano-DSF (human MPC1L/MPC2 complex [3]; listed as silibinin): No thermal shifts; Thermal shift in the CPM assay (human MPC1L/MPC2 complex [1]; compound 1 mM): positive thermal shift; ∆Tm, CPM assay (thermal shift compared to no-ligand control) (human MPC1L/MPC2 complex [1]): No thermal shifts
10 | CCCC(CCC)C(=O)O [Valproic acid, valproic acid] | 0 °C | 51.3 ± 0.3 °C | -0.1 ± 0.3 °C | 51.8 ± 0.2 °C | Effect on pyruvate transport ([2]; 1 mM final concentration): minimal; ∆Tm, CPM assay (thermal shift compared to no-ligand control) (human MPC1L/MPC2 complex [1]): no effect at all
11 | O=C(O)C(F)=Cc1ccccc1 [α-fluorocinnamate] | – | – | – | – | Potency relative to α-cyano-cinnamate (times less potent) (mammalian MPCs): 1,000 times

— article PMC8968063, “Key features of inhibitor binding to the human mitochondrial pyruvate carrier hetero-dimer” (Molecular Metabolism, 2022)
